According to article PMC7615363 (2023):

How the values were obtained:
[1] = system: T8R16/409 (RNA, aptamer) GCCUGCAAGUGCGACGAAUGGGAAAUAGCAAAAGAAAACAGAGACACCGACAUGUUAGAGACCACCGACGUG; experiment: isothermal titration calorimetry; details: 100 mM NaCl, 5 mM MgCl2, 50 mM HEPES, pH 7.6, 25 °C
[2] = system: T5R8/359 (RNA, aptamer) GGAUGAGCGACGCUGGAAGGAAGAAAAUGCAGAAAAAAAGAAAAAAAUGUCUGGGUCUGGCGACUGCUC; experiment: isothermal titration calorimetry; details: 100 mM NaCl, 5 mM MgCl2, 50 mM HEPES, pH 7.6, 25 °C
[3] = RNA 6 μM, nucleotide 100–200 μM in syringe

SMILES | Kd ([1]; one-site fit) | binding [2, 3] | binding [1, 3] | Kd ([2]; one-site fit with stoichiometry constrained to 0.5)
Nc1nc2c(ncn2[C@@H]2O[C@H](COP(=O)(O)OP(=O)(O)OP(=O)(O)O)[C@@H](O)[C@H]2O)c(=O)[nH]1 | ~ 0.5 μM | no |  | 
Nc1ncnc2c1ncn2[C@@H]1O[C@H](COP(=O)(O)OP(=O)(O)OP(=O)(O)O)[C@@H](O)[C@H]1O |  |  | no | ~ 7 μM
